Measurements from paper PMC6646405, “A quantitative, high-throughput method identifies protein–glycan interactions via mass spectrometry” (Communications Biology, 2019).

Test system: Maackia amurensis lectins (MAA)
Assay: CUPRA library screening and affinity, MAA
Format: binding
Details: 50uM MAA; mean of 4 DIi values, FigS3c
Description: Unless otherwise noted, the measurements were performed at 25 °C. […] We identified specific ligands from the depletion index (DIi, Eq. 1) – the change in the fractional abundance (Fi, Eq. 2) ratio of ligand i-bound and free ^UniPproxy ions upon addition of GBP. Prior to calculating Fi, we treated each mass spectrum with the Sliding Window Adducts Removal Method (SWARM)[18] to remove contributions to the abundance of ^UniPproxy -OS^mod complex ions from adducts, formed by the ESI process, of neighbouring complex ions (Supplementary Fig. 2). Shown in Fig. 2a is a summary of the DIi measured by CUPRA screening of the 66-component library against S4 (50 μM). As expected, the average DIi for this negative control is close to 1.0 (0.99 ± 0.03). In contrast, CUPRA screening against the positive controls produced decreases in DIi for one or more of the library components. […] Application of CUPRA to human CD22, part of an important class of Neu5Ac-binding GBPs implicated in both innate and adaptive immunity, correctly identified HMO08 as a ligand (Supplementary Fig. 4a). CUPRA screening of MAA at high concentration (50 μM) identified HMO03 and GA06 as ligands. […]
Using SWARM-treated mass spectra, DIi was calculated for each ligand from the ratio of the fractional abundances (Fi) of ligand (i)-bound and free ^UniPproxy ions in the presence (+GBP) and absence (-GBP) of GBP, Eqs. […]

CC(=O)N[C@H]1[C@H](O[C@@H]2[C@H](O[C@]3(C(=O)O)C[C@H](O)[C@@H](NC(C)=O)[C@H]([C@H](O)[C@@H](CO)O[C@]4(C(=O)O)C[C@H](O)[C@@H](NC(C)=O)[C@H]([C@H](O)[C@H](O)CO)O4)O3)[C@@H](O)[C@H](O[C@H]3[C@H](O)[C@@H](O)[C@H](N(CCOCCOCCNC(=O)[C@H](Cc4ccccc4)NC(=O)[C@H](Cc4ccccc4)NC(=O)CCCC(=O)NCCc4ccc(S(N)(=O)=O)cc4)C(C)=O)O[C@@H]3CO)O[C@@H]2CO)O[C@H](CO)[C@H](O)[C@@H]1O [GA10, GalNAcβ1-4(Neu5Acα2-8 Neu5Acα2-3)Galβ1-4Glc-CL]
average DI: 1.024
